IC50 data for 26 compounds are collected here from ChEMBL document CHEMBL4004852, “Pharmacophore Mapping of Thienopyrimidine-Based Monophosphonate (ThP-MP) Inhibitors of the Human Farnesyl Pyrophosphate Synthase” (J Med Chem, 2017).

pIC50: −log10 of the molar value.

This test deals with T1, Farnesyl pyrophosphate synthase (Homo sapiens, UniProt P14324).
T1 sequence (P14324 whole entry): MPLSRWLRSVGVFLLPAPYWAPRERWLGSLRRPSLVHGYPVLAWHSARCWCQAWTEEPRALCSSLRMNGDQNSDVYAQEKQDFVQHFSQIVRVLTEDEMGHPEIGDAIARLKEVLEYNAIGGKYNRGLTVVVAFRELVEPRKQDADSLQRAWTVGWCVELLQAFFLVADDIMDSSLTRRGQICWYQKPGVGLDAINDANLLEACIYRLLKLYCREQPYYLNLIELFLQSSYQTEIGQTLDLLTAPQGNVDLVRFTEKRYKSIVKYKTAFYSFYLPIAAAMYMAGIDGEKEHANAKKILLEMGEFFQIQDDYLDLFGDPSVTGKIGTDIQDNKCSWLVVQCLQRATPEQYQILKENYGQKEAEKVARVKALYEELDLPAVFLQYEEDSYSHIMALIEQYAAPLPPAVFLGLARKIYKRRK
As to the kind of experiment: Inhibition of N-terminal His-tagged human recombinant FPPS expressed in Escherichia coli BL21 (DE3) using GPP and [3H]-IPP as substrate preincubated for 10 mins before substrate addition measured after 8 mins by liquid scintillation counting.
On to `COc1cc(C)c(F)cc1-c1cc2c(NC(Cc3cccc(F)c3)P(=O)(O)O)ncnc2s1` (stereo unspecified), for which the pIC50 is 6.06.

Turning to `COc1ccc(F)cc1-c1cc2c(NC(Cc3cccc(F)c3)P(=O)(O)O)ncnc2s1` (stereo unspecified), the pIC50 is 6.00.

In the case of `Cc1ccc(-c2cc3c(NC(Cc4ccccc4)P(=O)(O)O)ncnc3s2)cc1Cl` (stereo unspecified), the pIC50 was 5.64.

As to `Cc1ccc(-c2cc3c(N[C@H](Cc4ccccc4)P(=O)(O)O)ncnc3s2)cc1`, the pIC50 was 6.00.

For the compound `Cc1ccc(-c2sc3ncnc(NCP(=O)(O)O)c3c2C)cc1`, the pIC50 was 5.00.

Regarding `Cc1ccc(-c2sc3ncnc(NC(Cc4ccccc4)P(=O)(O)O)c3c2C)cc1` (stereo unspecified), the negative logarithm of the IC50 (pIC50) was 5.59.

Take `Cc1ccc(-c2cc3c(NC(Cc4ccccc4)P(=O)(O)O)ncnc3s2)cc1` (stereo unspecified): the pIC50 is 5.85.

Turning to `Cc1ccc(-c2cc3c(NC(CC4CCC4)P(=O)(O)O)ncnc3s2)cc1` (stereo unspecified), the pIC50 is 5.55.

`Cc1ccc(-c2cc3c(NC(Cc4cccc(F)c4)P(=O)(O)O)ncnc3s2)cc1Cl` (stereo unspecified): the pIC50 was 6.07.

As for `Cc1ccc(-c2sc3ncncc3c2CP(=O)(O)O)cc1`, the pIC50 was ≤ 4.00.

With `COc1cc(C)c(Cl)cc1-c1cc2c(NCP(=O)(O)O)ncnc2s1`, the pIC50 is 5.06.

Take `Cc1ccc(-c2cc3c(NC(c4ccc5c(c4)CCO5)P(=O)(O)O)ncnc3s2)cc1` (stereo unspecified): the pIC50 was 5.52.

Take `Cc1ccc(-c2cc3c(NC(c4ccccc4)P(=O)(O)O)ncnc3s2)cc1Cl` (stereo unspecified): the pIC50 is 5.80.

As for `O=P(O)(O)CNc1ncnc2sccc12`, the pIC50 is < 4.00.

For the compound `Cc1ccc(-c2cc3c(NC(CC4CCCCC4)P(=O)(O)O)ncnc3s2)cc1` (stereo unspecified), the negative logarithm of the IC50 (pIC50) was 5.80.

On to `Cc1ccc(-c2cc3c(N[C@@H](Cc4ccccc4)C(=O)NP(=O)(O)O)ncnc3s2)cc1`, for which the pIC50 is 5.43.

`COc1cc(C)c(Cl)cc1-c1cc2c(NC(Cc3ccccc3)P(=O)(O)O)ncnc2s1` (stereo unspecified): the pIC50 was 5.34.

As to `Cc1ccc(-c2cc3c(NC(Cc4cccc(F)c4)P(=O)(O)O)ncnc3s2)cc1` (stereo unspecified), the pIC50 is 5.96.

Consider `COc1cc(C)c(F)cc1-c1cc2c(NCP(=O)(O)O)ncnc2s1`, for which the negative-log IC50 (pIC50) is 5.34.

Consider `COc1cc(C)c(F)cc1-c1cc2c(NC(Cc3ccccc3)P(=O)(O)O)ncnc2s1` (stereo unspecified), for which the pIC50 is 5.80.

As for `Cc1ccc(-c2cc3c(NC(c4ccccc4)P(=O)(O)O)ncnc3s2)cc1` (stereo unspecified), the pIC50 was 5.32.

For `Cc1ccc(-c2cc3c(NCP(=O)(O)O)ncnc3s2)cc1`, the pIC50 was 5.30.

In the case of `Cc1ccc(-c2cc3c(NC(Cc4cccc(F)c4)P(=O)(O)O)ncnc3s2)cc1F` (stereo unspecified), the negative-log IC50 (pIC50) is 5.82.

Turning to `Cc1ccc(-c2cc3c(N[C@@H](Cc4ccccc4)P(=O)(O)O)ncnc3s2)cc1`, the pIC50 is 5.40.

As to `COc1cc(C)c(Cl)cc1-c1cc2c(NC(c3ccccc3)P(=O)(O)O)ncnc2s1` (stereo unspecified), the pIC50 was 5.08.

Consider `Cc1ccc(-c2sc3ncnc4c3c2COP(=O)(O)CCC4)cc1`, for which the pIC50 is ≤ 4.00.

As a reminder, the pIC50 is −log10 of the IC50, conventionally taken in molar units.
